According to patent US20120231482A1, “METHOD, KIT OR DIAGNOSTIC FOR THE DETECTION OF REAGENTS WHICH INDUCE ALTERED CONTRACTILITY” (THE JOHNS HOPKINS UNIVERSITY, priority 2009, published 2012):

Experiments:
[1] = test system: rat cardiac muscle; assay: Force and [Ca2+]i measurements in cardiac trabeculae; type: cell-based; conditions: control compounds (NCA hydrolysis products, non-HNO-releasing analogue); data not shown
Experimental: Force and [Ca^2+]i Measurements in Cardiac Trabeculae.
Rat hearts were exposed via midsternotomy after the animals were anesthetized with intraperitoneal injection of pentobarbital (100 mg/kg), and were then rapidly excised and aorta cannulated. The hearts were perfused retrogradely (˜15 ml/min) with high K^+ Krebs-Henseleit (H-K) solution equilibrated with 95% O2 and 5% CO2. Trabeculae were quickly dissected from the right ventricles of the hearts and mounted between a force transducer and a motor arm. The muscles were superfused with K-H solution at a rate of ˜10 ml/min and stimulated at 0.5 Hz. Force was measured using a force transducer system (SI, Germany) and expressed in mN/mm^2. Sarcomere length was measured by laser diffraction. Fura-2 potassium salt was microinjected iontophoretically into one cell and allowed to spread throughout the whole muscle (via gap junctions). The epifluorescence of fura-2 was measured by exciting at 380 and 340 nm. The fluorescent light was collected at 510 nm by a photomultiplier tube (R1527, Hamamatsu). [Ca^2+]i was given by (after subtraction of the autofluorescence): [Ca^2+]i=K′d(R-Rmin)/(Rmax-R), where R is the observed ratio of fluorescence (340/380), K′d is the apparent dissociation constant, Rmax is the ratio of 340 nm/380 nm at saturating [Ca^2+], and Rmin is the ratio of 340 nm/380 nm at zero [Ca^2+]. The values of K′d, Rmax, and Rmin were determined by in vivo calibrations. Tetanization of the trabecula was achieved by addition of ryanodine (1.0 μmol/L) and by increasing the stimulus rate to 10 Hz briefly (˜3 sec) to obtain steady-state force-[Ca^2+] relations. Different levels of tetanized force will be obtained by increasing [Ca^2+] in the perfusate (up to 20-25 mmol/L). The data will be fitted with the Hill equation: F=Fmax[Ca^2+]in/(K1/2n+[Ca^2+]in), where Fmax is the maximal force. K1/2 is [Ca^2+]i at half Fmax, and n is the Hill coefficient.
1-nitrosocyclohexylacetate (NCA) is a new and mechanistically unique HNO donor that has been recently synthesized.

[2] = test system: skinned trabeculae; assay: Force-[Ca2+] relation in skinned trabeculae; type: cell-based, rat; conditions: skinned muscles; DTT (5 mM) for 10 min after NCA
Experimental: FIG. 2. […] (A) Steady-state force-[Ca^2+]i relationship in intact trabeculae before and after NCA (20 μmol/L). n=5. See text for details. (B) Force-[Ca^2+] relation in skinned trabeculae before and after NCA (n=6). […] The muscles were treated with DTT (5 mM) for 10 min after 1st force-[Ca^2+] was obtained in the presence of NCA alone, and a second force-[Ca^2+] relation was obtained in the presence of NCA+DTT. n=3. (D) For comparison, steady-state force-[Ca^2+]i relationship in intact trabeculae before and after AS (500 μmol/L). n=5.
To further test this hypothesis, steady-state force-[Ca^2+]i relations were obtained by tetanizing the muscles in the presence of ryanodine.

O=C1CCCCC1 [cyclohexanone]
effects in cardiac muscles [1]: did not produce any appreciable effects

CC(C)(C)C(=O)OC1(N=O)CCCCC1 [1-nitrosocyclohexyl pivalate]
effects in cardiac muscles [1]: had no effects

O[C@@H](CS)[C@@H](O)CS [DTT]
increases in myofilament Ca2+ sensitivity caused by HNO [2]: completely abolished
